According to ChEMBL document CHEMBL1146390, “Cytotoxic acylated Spermidine from a soft coral, Sinularia sp” (1997):
Values after ≈ are worked out from the molar mass of the structure shown.

Tested on: P388
Assay: Cytotoxicity against mouse P388 cells
Format: functional
Conditions: read-out: ED50 (the source's name)

Compound: CCCCCCCCCC(C)/C=C/CC(=O)NCCCN(C)CCCCN(C)C (stereo unspecified)
- EC50: 0.04 µg/mL (≈ 0.0976 µM)
